# Source: article PMC4399838, “Antipsychotic-Like Effect of the Muscarinic Acetylcholine Receptor Agonist BuTAC in Non-Human Primates” (PLoS ONE, 2015)
# What was measured:
# M3AChR = M3AChR (Homo sapiens, UniProt P20309); experiment: Competitive radioligand binding; details: competitive binding; negative log-transformed; read-out: pKi (converted)
# [1] = target: T1, human M5 muscarinic receptor (Homo sapiens, UniProt P08912); experiment: GTP-γ-[35S] binding, antibody capture SPA (agonist and antagonist mode); assay type: biochemical
# T1 construct: purchased PerkinElmer Life and Analytical Sciences, Boston, MA
# T1 sequence (P08912 1-532): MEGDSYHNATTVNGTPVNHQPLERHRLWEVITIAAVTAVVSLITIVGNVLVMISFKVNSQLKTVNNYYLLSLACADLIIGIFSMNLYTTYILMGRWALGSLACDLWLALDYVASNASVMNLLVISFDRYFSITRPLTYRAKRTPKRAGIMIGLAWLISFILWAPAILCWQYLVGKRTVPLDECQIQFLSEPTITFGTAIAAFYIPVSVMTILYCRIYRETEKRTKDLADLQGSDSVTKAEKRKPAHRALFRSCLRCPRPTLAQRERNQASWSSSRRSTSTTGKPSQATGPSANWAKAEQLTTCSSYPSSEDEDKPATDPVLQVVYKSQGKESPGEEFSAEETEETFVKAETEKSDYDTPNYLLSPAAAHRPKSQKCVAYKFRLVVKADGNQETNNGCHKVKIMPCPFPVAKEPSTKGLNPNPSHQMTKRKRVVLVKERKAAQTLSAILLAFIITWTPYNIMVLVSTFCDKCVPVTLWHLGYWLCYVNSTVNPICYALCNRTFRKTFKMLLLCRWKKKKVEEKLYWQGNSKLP
# Description: (§1) The antibody capture scintillation proximity technique previously described by DeLapp et al was used in a 96-well plate to determine GTP-γ-[35S] binding. One hundred μl (20–40 fmol/well) of membrane preparation from CHO cells that stably express the human M1-M5 muscarinic receptors (PerkinElmer Life and Analytical Sciences, Boston, MA) were incubated with varying concentration of test compound (final concentrations from 50pM to 1μM) for 30 min. One μM final concentration of GDP was added to M2 and M4 receptor membranes before incubation. […] (500 pM final concentration; Perkin Elmer Life and Analytical Sciences) was added to each well followed by 30 min of incubation. […] An anti-Gαq/11 antibody was used for the M1-, M3-, and M5 membranes, whereas an anti-Gαi-3 antibody was used for the M2- and M4 membranes (Eli Lilly and Company, Indianapolis, IN). […] By use of a Wallac MicroBeta TriLux scintillation counter (PerkinElmer), the plates were centrifuged for 10 min at 700 × g and counted for 1 min per well. The incubations took place at room temperature in GTP-binding assay buffer (20 mM Hepes, 100 mm NaCl, 5 mM MgC12, pH 7.4). The data were analyzed by use of nonlinear regression for a sigmoidal concentration response curve (GraphPad Prism v. 4.0). Data were normalized to a full agonist response (100 μM oxotremorine-M). […] The antagonist percent inhibition data were normalized to data generated with an EC90 concentration of acetylcholine. The mean relative EC50, IC50, and %Emax, and pKi values were calculated as a mean of at least three independent experiments±SEM. In order to obtain relevant comparisons between subtypes, the experimental system is routinely calibrated with reference agonists (oxotremorine-M, pilocarpine, MCN-A343) to measure full and partial agonism as well as to ensure that the system is not under- or over-reporting functional efficacies. The radioligand binding assays have earlier been described.
# [2] = target: T2, human M4 muscarinic receptor (Homo sapiens, UniProt P08173); experiment: as above; assay type: biochemical
# T2 construct: purchased PerkinElmer Life and Analytical Sciences, Boston, MA
# T2 sequence (P08173 1-479): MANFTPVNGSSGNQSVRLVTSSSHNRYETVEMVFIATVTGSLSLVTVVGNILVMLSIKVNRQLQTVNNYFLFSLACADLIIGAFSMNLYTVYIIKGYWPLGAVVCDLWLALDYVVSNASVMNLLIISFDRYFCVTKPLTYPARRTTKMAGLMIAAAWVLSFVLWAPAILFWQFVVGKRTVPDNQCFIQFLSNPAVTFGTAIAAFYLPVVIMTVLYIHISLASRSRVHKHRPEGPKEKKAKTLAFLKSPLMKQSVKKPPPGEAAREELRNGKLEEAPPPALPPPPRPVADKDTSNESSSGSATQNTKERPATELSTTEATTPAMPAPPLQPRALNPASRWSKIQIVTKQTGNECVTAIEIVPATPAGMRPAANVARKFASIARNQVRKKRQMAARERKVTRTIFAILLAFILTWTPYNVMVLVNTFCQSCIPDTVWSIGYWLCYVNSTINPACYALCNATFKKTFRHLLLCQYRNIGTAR
# Description: as §1
# [3] = target: T3, human M2 muscarinic receptor (Homo sapiens, UniProt P08172); experiment: as above; assay type: biochemical
# T3 construct: purchased PerkinElmer Life and Analytical Sciences, Boston, MA
# T3 sequence (P08172 1-466): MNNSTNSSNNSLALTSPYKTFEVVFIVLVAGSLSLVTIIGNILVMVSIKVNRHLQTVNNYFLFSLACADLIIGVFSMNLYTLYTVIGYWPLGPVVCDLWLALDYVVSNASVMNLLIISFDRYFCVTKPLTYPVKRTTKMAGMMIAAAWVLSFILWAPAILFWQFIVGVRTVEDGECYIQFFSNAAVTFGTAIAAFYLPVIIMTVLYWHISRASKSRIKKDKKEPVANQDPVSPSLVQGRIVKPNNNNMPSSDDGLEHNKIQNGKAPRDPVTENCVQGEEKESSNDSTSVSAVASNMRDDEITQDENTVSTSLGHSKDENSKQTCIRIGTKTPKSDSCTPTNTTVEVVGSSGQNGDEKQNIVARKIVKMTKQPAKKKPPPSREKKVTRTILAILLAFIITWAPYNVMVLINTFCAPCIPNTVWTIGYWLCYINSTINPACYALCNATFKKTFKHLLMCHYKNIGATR
# Description: (§2) The antibody capture scintillation proximity technique previously described by DeLapp et al was used in a 96-well plate to determine GTP-γ-[35S] binding. One hundred μl (20–40 fmol/well) of membrane preparation from CHO cells that stably express the human M1-M5 muscarinic receptors (PerkinElmer Life and Analytical Sciences, Boston, MA) were incubated with varying concentration of test compound (final concentrations from 50pM to 1μM) for 30 min. One μM final concentration of GDP was added to M2 and M4 receptor membranes before incubation. […] (500 pM final concentration; Perkin Elmer Life and Analytical Sciences) was added to each well followed by 30 min of incubation. Then the labelled membranes were solubilized with 0.27% Nonidet P40 for 30 min where after they were incubated with 20 μl (final dilution of 1:400) of the appropriate rabbit polyclonal Gα antibody (Covance, Princeton, NJ) for 60 min. An anti-Gαq/11 antibody was used for the M1-, M3-, and M5 membranes, whereas an anti-Gαi-3 antibody was used for the M2- and M4 membranes (Eli Lilly and Company, Indianapolis, IN). After 60 min of incubation, 50 μl (1.25 mg/well) anti-rabbit scintillation proximity assay (SPA) beads (GE Healthcare, Piscataway, NJ) were added per well where after the plates were incubated for another 3 h. By use of a Wallac MicroBeta TriLux scintillation counter (PerkinElmer), the plates were centrifuged for 10 min at 700 × g and counted for 1 min per well. The incubations took place at room temperature in GTP-binding assay buffer (20 mM Hepes, 100 mm NaCl, 5 mM MgC12, pH 7.4). The data were analyzed by use of nonlinear regression for a sigmoidal concentration response curve (GraphPad Prism v. 4.0). Data were normalized to a full agonist response (100 μM oxotremorine-M). […] The antagonist percent inhibition data were normalized to data generated with an EC90 concentration of acetylcholine. The mean relative EC50, IC50, and %Emax, and pKi values were calculated as a mean of at least three independent experiments±SEM. In order to obtain relevant comparisons between subtypes, the experimental system is routinely calibrated with reference agonists (oxotremorine-M, pilocarpine, MCN-A343) to measure full and partial agonism as well as to ensure that the system is not under- or over-reporting functional efficacies. The radioligand binding assays have earlier been described.
# [4] = target: T4, human M3 muscarinic receptor (Homo sapiens, UniProt P20309); experiment: as above; assay type: biochemical
# T4 construct: purchased PerkinElmer Life and Analytical Sciences, Boston, MA
# Description: as §2
# schizophrenic patients = system: schizophrenic patients; parameters: method as in PMID 13425257; details: subcutaneous injection, twenty-three schizophrenic patients; cited from earlier work
# [5] = system: antipsychotic-naïve Cebus Apella monkeys; experiment: Side effects of BuTAC alone or with d-amphetamine; assay type: in vivo; details: d-amphetamine 0.5 mg/kg alone
# Description: (§3) Seven male Cebus Apella monkeys were used for evaluation the anti-amphetamine effect and the side effect profile of BuTAC. These monkeys were never before administered antipsychotics and had never experienced EPS, but had previously been administered amphetamine. For further evaluation of the EPS potential of BuTAC, the compound was tested in four male and female monkeys, all sensitized to drug-induced EPS by earlier chronic treatment with classical antipsychotic drugs.
# (§4) All monkeys received all treatments with at least one week between tests and thus served as their own control. To avoid extended physical contact with the experimenter, the cages were reduced in sized by moving the back wall of the cage closer to the front wall to lightly immobilize the monkey while injecting the test substance in the thigh. This was done at 9 am at test days. After the appropriate pre-treatment time, the monkeys were videotaped in their cages at predefined time points after drug injection.
# (§5) The rated primate behaviours and symptoms were the following: unrest, stereotypy, arousal, sedation and bradykinesia (Table 1). All monkeys were videotaped in 90-sec. sessions at specific time points throughout the test sessions. The videotapes were rated for amphetamine-induced behaviours and EPS by two experienced raters blinded to the treatment of the animal by means of a rating scale adapted from Peacock et al. and previously described by Andersen et al. (Table 1). In case of any discrepancy between the two ratings, the recording in question was re-evaluated and a rating agreed upon. The monkeys were videotaped at t = 30, 60, 90, 135, 150, 165, 180, 240, 300 min after BuTAC (or vehicle) administration. For the combination studies, d-amphetamine was injected at t = 120 min. Oral dyskinesia was measured in counts per 90 sec. The severity of other behaviours and symptoms were rated on a scale ranging from 0 (not present) to 6 (extreme presence).
# (§6) For evaluation of anti-amphetamine effects, BuTAC was tested in doses of 0.001, 0.003, 0.01 mg/kg in combination with 0.5 mg/kg of d-amphetamine. BuTAC or peanut oil vehicle was injected s.c. at approximately 9 a.m. Pre-treatment time before s.c. injection of amphetamine was 120 min. For evaluation of side effects, BuTAC was tested alone at doses of 0.001, 0.003 and 0.01 mg/kg in antipsychotic-naïve monkeys and at doses of 0.003 and 0.01 mg/kg in monkeys sensitized to extrapyramidal side effects (EPS) by earlier long-term treatment with first generation antipsychotics. […] None of the animals were sacrificed.
# (§7) Data from the experiments where BuTAC was administered alone collected at t = 60, 180, 300 min are presented. For the d-amphetamine / BuTAC study, data collected at t(amp) = 60, 120 and 180 min (t = 180, 240, 300 min) are reported. Data were analyzed for overall treatment effects at each time point by means of the non-parametric Friedman’s test for repeated measures. The Student Newman-Keuls comparison procedure was used to analyze for specific dose effects. For all tests, the accepted level of significance was p<0.05.
# [6] = system: antipsychotic-naïve Cebus Apella monkeys; experiment: d-Amphetamine-induced behaviour (unrest, stereotypies, arousal), video rating; assay type: in vivo
# Description: as §3, §4, §5, §6, §7
# monkeys [7] = experiment: BuTAC-induced emesis and its inhibition by domperidone; assay type: in vivo, Cebus Apella
# Description: S1 Table. Emesis BuTAC / Domperidone
# BuTAC 0.01 mg/kg / 1 in 7
# Domperidone was purchased from Tocris Bioscience (Bristol, United Kingdom) and dissolved
# in 0.9% saline. The compound was administered subcutaneously where after the animals
# monkeys [8] = system: monkeys; parameters: method as in PMID 10435384; details: cited from earlier work
# [9] = antagonist mode, maximal inhibition of EC90 agonist response
# [10] = percentage of maximum 100 μM oxotremorine-M signal, read-out: % Emax
# [11] = percentage of maximum 100 μM oxotremorine-M signal
# T4 sequence (P20309 whole entry): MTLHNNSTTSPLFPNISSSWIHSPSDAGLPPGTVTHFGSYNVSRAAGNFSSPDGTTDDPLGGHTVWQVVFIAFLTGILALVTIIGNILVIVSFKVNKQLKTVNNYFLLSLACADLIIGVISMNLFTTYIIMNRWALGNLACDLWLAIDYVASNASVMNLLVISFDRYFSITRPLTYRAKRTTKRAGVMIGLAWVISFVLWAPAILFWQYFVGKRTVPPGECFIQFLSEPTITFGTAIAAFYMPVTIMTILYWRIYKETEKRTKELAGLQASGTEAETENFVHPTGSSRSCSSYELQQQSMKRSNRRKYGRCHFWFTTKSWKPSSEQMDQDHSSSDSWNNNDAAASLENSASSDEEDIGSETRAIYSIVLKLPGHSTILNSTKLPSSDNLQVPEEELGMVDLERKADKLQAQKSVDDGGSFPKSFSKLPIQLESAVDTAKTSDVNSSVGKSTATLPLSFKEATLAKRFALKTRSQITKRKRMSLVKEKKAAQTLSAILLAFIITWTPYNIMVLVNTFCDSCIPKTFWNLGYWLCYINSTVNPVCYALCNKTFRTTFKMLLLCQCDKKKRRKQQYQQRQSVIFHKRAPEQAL
# Sequence of M3AChR (P20309 whole entry): as above
smiles,measurement,setting,value
"CCCCCCOc1nsnc1C1=CCCN(C)C1 [Xanomeline, xanomeline]",Ki,M3AChR,0.0275 µM
same,% Inhibition,[1]; [9],81.8 ± 18.5%
same,Emax,[1]; [10],28.7 ± 0.7%
same,% Inhibition,[2]; [9],51.4 ± 2.61%
same,Emax,[2]; [10],41.8 ± 1.99%
same,% Inhibition,[3]; [9],19.4 ± 0.77%
same,Emax,[3]; [11],55.2 ± 5.12%
same,EC50,"[4]; agonist mode, mean ± SEM of negative log-transformed values, read-out: Rel pEC50 (converted)",0.0178 µM
same,IC50,"[4]; antagonist mode against EC90 of agonist, negative log-transformed, read-out: Rel pIC50 (converted)",0.832 µM
same,% Inhibition,[4]; [9],87.6 ± 6.79%
same,Emax,[4]; [11],13.6 ± 0.56%
COC(=O)C1=CCCN(C)C1 [arecoline],Patients with clinical improvement (“lucid intervals”),schizophrenic patients,more than 80%
"C[C@H](N)Cc1ccccc1.C[C@H](N)Cc1ccccc1.O=S(=O)(O)O [d-amphetamine, d-Amphetamine sulphate, reference compound]",Emetic events (vomiting) (monkeys affected),[5],0
same,Salivation (monkeys affected),[5],0
same,Sedation 2 ≤ X ≤ 5 (monkeys affected),[5],0
same,Stereotypies,"[6]; amphetamine 0.5 mg/kg alone, all three test times",significantly induced stereotypies
same,Arousal,"[6]; d-amphetamine 0.5 mg/kg alone, all test times",induced arousal
same,Unrest,"[6]; d-amphetamine 0.5 mg/kg alone, all time points, relative to vehicle",significantly increased unrest
O=c1[nH]c2ccccc2n1CCCN1CCC(n2c(=O)[nH]c3cc(Cl)ccc32)CC1 [domperidone],"Emetic events (vomiting), monkeys with emesis",monkeys [7]; BuTAC 0.01 mg/kg / domperidone 0.05 mg/kg s.c.,3/7
same,"Emetic events (vomiting), monkeys with emesis",monkeys [7]; BuTAC 0.01 mg/kg / domperidone 0.10 mg/kg s.c.,1/7
same,Effect on BuTAC (0.01 mg/kg)-induced emesis,monkeys [7]; domperidone 0.05 and 0.1 mg/kg,dose dependently inhibited
O=C(CCCN1CCC(O)(c2ccc(Cl)cc2)CC1)c1ccc(F)cc1 [haloperidol],Minimal effective dose to inhibit amphetamine-induced behaviour,monkeys [8],0.015 mg/kg
